Source: patent US8796415B2, “Inhibitors of guanine exchange factors and their use as anticancer drugs” (Centre National de la Recherche Scientifique, priority 2009, dated 2014)
Ends that are not written are not given here.

Tests used:
Trio DH2-PH2 = molecular target: T1, Trio DH2-PH2 (Homo sapiens, UniProt O75962); details: Schmidt et al., 2002; cited from earlier work
T1 construct: made in house

p115RhoGEF = molecular target: T2, p115RhoGEF (Homo sapiens, UniProt Q92888); details: shown previously (Schmidt et al., 2002 and unpublished results); cited from earlier work
T2 construct: GST (N); made in house; host or cells: baculovirus system
T2 sequence (Q92888 1-912): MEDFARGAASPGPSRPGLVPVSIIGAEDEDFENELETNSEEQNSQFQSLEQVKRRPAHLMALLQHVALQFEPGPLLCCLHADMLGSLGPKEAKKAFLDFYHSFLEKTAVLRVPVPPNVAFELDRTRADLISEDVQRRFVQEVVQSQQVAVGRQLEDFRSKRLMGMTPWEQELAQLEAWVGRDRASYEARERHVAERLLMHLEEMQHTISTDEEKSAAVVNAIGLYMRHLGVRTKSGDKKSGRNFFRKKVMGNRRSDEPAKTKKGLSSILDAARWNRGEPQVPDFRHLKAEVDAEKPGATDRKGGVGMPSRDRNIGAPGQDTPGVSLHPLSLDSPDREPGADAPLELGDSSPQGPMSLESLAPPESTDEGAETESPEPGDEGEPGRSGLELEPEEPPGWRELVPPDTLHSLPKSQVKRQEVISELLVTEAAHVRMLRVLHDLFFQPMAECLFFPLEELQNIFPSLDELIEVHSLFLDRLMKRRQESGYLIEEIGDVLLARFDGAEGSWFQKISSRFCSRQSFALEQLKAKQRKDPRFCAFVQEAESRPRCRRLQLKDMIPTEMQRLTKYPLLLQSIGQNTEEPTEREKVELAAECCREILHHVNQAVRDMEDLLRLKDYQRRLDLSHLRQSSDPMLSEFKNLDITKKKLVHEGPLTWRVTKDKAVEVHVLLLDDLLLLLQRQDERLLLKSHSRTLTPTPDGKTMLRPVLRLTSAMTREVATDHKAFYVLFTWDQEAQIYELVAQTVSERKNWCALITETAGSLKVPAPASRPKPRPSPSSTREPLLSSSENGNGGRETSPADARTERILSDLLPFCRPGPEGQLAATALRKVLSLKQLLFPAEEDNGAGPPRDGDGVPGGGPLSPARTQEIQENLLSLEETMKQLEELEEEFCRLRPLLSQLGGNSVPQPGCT

p63RhoGEF = molecular target: T3, p63RhoGEF (Homo sapiens, UniProt Q86VW2); details: shown previously (Schmidt et al., 2002 and unpublished results); cited from earlier work
T3 construct: GST-p63RhoGEF (DH domain) and GST-RhoG were purified as described previously; GST (N); made in house

Lbc = molecular target: T4, Lbc (Homo sapiens, UniProt Q12802); details: shown previously (Schmidt et al., 2002 and unpublished results); cited from earlier work
T4 construct: GST-Dbl (DH-PH domain), GST-Lbc (DH-PH), GST-p63RhoGEF (DH domain) and GST-RhoG were purified as described previously; GST (N); made in house
T4 sequence (Q12802 1994-2333): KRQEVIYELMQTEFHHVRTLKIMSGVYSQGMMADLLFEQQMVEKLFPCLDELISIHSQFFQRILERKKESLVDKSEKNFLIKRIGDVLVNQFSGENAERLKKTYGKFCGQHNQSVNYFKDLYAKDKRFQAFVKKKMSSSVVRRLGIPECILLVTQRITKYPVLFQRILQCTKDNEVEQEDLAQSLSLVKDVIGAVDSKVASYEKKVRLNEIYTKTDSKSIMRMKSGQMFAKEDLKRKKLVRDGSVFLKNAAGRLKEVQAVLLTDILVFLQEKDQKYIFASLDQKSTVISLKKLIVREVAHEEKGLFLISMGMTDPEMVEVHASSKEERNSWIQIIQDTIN

Dbl = details: shown previously (Schmidt et al., 2002 and unpublished results); cited from earlier work
[1] = test system: Tgat-expressing NIH3T3 cells; experiment: Focus formation assay of Tgat-expressing NIH3T3 cells; assay type: cell-based; details: GST-tagged peptide stably co-expressed; after 3 weeks of culture
Description: FIG. 9A represents the focus formation assay of NIH3T3 cells, stably expressing GFP or GFP-Tgat, together with GST or GST-TRIPE32G.
FIG. 9B represents the quantification of three independent focus formation assays. The number of foci formed by Tgat/GST expressing cells was set to 100%.
NIH3T3 cells were maintained as described previously (Sirvent et al., 2007). Transient transfection experiments were performed using the Jet PEI reagent, according to the manufacturer's protocol (QBiogene Inc.). NIH3T3 cell lines stably expressing GFP-Tgat, GFP-TgatL190E, or GFP-Trio, with or without the GST-TRIP peptides, were generated as follows: the indicated retroviral constructs were transfected into BOSC packaging cells, using the Lipofectamine reagent (Invitrogen Inc.). Forty-eight hours after transfection, virus containing supernatants were collected and used to infect NIH3T3 cells. Infected cells were selected with 6 μg/mL puromycin and/or 1 mg/mL G418 and stable transfectants were pooled after selection. Tgat or TRIP mRNA levels in the different cell lines were monitored by RTPCR, and protein expression levels by Western blot analysis using a polyclonal anti-GFP antibody (Toney Pines Laboratories). […] After staining with Crystal Violet (1%), plates were photographed and foci were scored using the Metamorph software. […]

[2] = test system: Tgat-expressing NIH3T3 cells; experiment: Cell proliferation or apoptosis (data not shown); assay type: cell-based
[3] = test system: NIH3T3 cells stably expressing GFP-Tgat; experiment: Tumor formation in Balb/c nude mice grafted with NIH3T3 cells expressing Tgat; assay type: in vivo
Description: FIG. 10A represents tumor formation in Balb/c nude mice. NIH3T3 cells stably expressing GFP-Tgat/GST or GFP-Tgat/GSTTRIP E32G were injected subcutaneously into the flanks of Balb/c nude mice and tumor volume was measured every week. The graph is representative of the three independent assays that were performed.
FIG. 10B represents the tumor weights (in grams) after the experiments. Ten weeks post graft, mice were euthanised, tumors were excised and weighed, and the mean tumor weight was plotted on the graph. (*) A paired Student's t-test was performed, matching the samples for each mouse, and the P value was 0.019. Error bars represent standard deviation in all graphs.
Female Balb/c nu/nu mice were purchased from Charles River France and used at 6-8 weeks of age. 12 Balb/c nu/nu mice were subcutaneously grafted with 2×10^6 cells of each cell line on both sides (Tgat on the left and Tgat+TRIPE32G on the right flank of the leg). The appearance of tumors was scored visually every week. 10 weeks post graft, mice were euthanized and tumors excised and weighed. mRNA and protein levels in the tumors were verified by RT-PCR and Western blot (data not shown).

Sequence of Dbl (P10911 495-809 limits assumed): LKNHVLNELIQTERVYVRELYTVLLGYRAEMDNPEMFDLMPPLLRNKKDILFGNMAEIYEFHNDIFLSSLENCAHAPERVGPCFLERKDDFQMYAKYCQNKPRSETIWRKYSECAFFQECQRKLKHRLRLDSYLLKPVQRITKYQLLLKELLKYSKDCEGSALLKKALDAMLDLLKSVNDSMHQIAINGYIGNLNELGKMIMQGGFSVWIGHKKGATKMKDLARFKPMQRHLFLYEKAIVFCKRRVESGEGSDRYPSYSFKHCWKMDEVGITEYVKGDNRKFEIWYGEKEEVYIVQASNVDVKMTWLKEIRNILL
T3 sequence (Q86VW2 160-336 limits assumed): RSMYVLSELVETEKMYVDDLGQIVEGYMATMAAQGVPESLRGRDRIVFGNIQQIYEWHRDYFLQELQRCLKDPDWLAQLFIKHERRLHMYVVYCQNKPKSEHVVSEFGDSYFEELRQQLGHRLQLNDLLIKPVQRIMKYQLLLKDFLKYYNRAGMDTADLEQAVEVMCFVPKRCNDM

| Substance | inhibition of Trio DH2-PH2 activation of RhoA (Trio DH2-PH2) | activity on p115RhoGEF (p115RhoGEF) | activity on p63RhoGEF (p63RhoGEF) | activity on Lbc (Lbc) | activity on Dbl (Dbl) | foci in Tgat expressing cells [1] | non-specific effect on cell proliferation or apoptosis [2] | number of mice with tumors ([3]; 12 mice grafted subcutaneously, peptide co-expressed with Tgat, Tgat alone ten out of twelve) | delay in the formation of tumors ([3]; peptide co-expressed with Tgat, versus Tgat alone) | weight of the tumors ([3]; ten weeks post graft, paired Student's t-test P value 0.019) |
| --- | --- | --- | --- | --- | --- | --- | --- | --- | --- | --- |
| AREGADGAICGYNLATLVMLGPSERVFCPLCEPCSSDIYELM [TRIPα] | inhibits its activation of RhoA both in vitro and in intact cells | not active | not active | not active | not active | – | – | – | – | – |
| GST-TRIPE32G (AREGADGAICGYNLATLVMLGPSERVFCPLCGPCSSDIYELM; cysteine pairing not given here; also: GST fusion) | – | – | – | – | – | severely reduced | not due to a non-specific effect of TRIPE32G on cell proliferation or apoptosis | seven | about three | significantly reduced |
